In patent publication US11384062B2 (CombiPhos Catalysts, Inc., priority 2017, dated 2022):
Each block holds one molecule with its values, some of them ahead of it.

Experiment: in vitro
Conditions: for CLint scaled at 0.5 µM: pH 7.4, Clint
Procedure: Buffer solutions were prepared as follows: • a. Buffer A: 0.1 M monobasic potassium phosphate buffer containing 1.0 mM EDTA. • b. Buffer B: 0.1 M dibasic potassium phosphate buffer containing 1.0 mM EDTA. • c. Buffer C: 0.1 M potassium phosphate buffer containing 1.0 mM EDTA was adjusted to pH 7.4 by titrating 700 mL of Buffer B with Buffer A while monitoring with a pH meter. • 2. An NADPH stock solution (6 mM) was prepared by dissolving NADPH into Buffer C. • 3. Spiking solutions were prepared for the reference compound (ketanserin) and the test compounds as follows: • a. A 500 μM spiking solution of the reference compound (ketanserin) was generated by adding 10 μL of a 10 mM stock solution of ketanserin in DMSO into 190 μL acetonitrile. A 1.5 μM spiking solution in microsomes (0.75 mg/mL) was generated by adding 1.5 μL of the 500 μM spiking solution and 18.75 μL of 20 mg/mL rat liver microsomes into 479.75 μL of Buffer C while cooling with ice. • b. […] A 0.75 μM spiking solution in microsomes (0.75 mg/mL) was generated by adding 1.5 μL of the 250 μM spiking solution and 18.75 μL of 20 mg/mL rat liver microsomes into 479.75 μL of Buffer C while cooling with ice. • 4. 30 μL of 1.5 μM spiking solution containing 0.75 mg/mL microsomes solution was dispensed into assay plates designated for different time points (0 min, 5 min, 15 min, 30 min, and 45 min; or 0 min, 15 min, 30 min, 45 min, and 60 min as shown in Tables 1-5 below) while cooling with ice. • 5. For the 0 min time point assay plate, 135 μL of ACN containing IS followed immediately by 15 μL of the 6 mM NADPH stock solution were added to the wells of the 0 min assay plate. • 6. All assay plates other than the 0 min assay plate were pre-incubated at 37° C. for 5 min, and then 15 μL of the 6 mM NADPH stock solution was added to the wells of the assay plates to start the reaction and timing. At the appropriate time (5 min, 15 min, 30 min, 45 min, or 60 min), 135 μL of ACN containing IS was added to the wells of the corresponding assay plates, respectively, to stop the reaction. • 7. After quenching, the plates were shaken in a vibrator (IKA, MTS 2/4) for 10 min (600 rpm/min) and then centrifuged at 5594 g for 15 min (Thermo Multifuge×3R). • 8. After centrifugation, 50 μL of the supernatant from each well was transferred into a 96-well sample plate containing 50 μL of ultrapure water (Millipore, ZMQS50F01) for LC/MS analysis.

[1] = rat, microsomes, 0 h, 0.5 µM, pH 7.4
[2] = rat, microsomes, 0.5 µM, pH 7.4
[3] = rat, microsomes, 0.25 h, 0.5 µM, pH 7.4
[4] = rat, microsomes, 0.5 h, 0.5 µM, pH 7.4
[5] = rat, microsomes, 0.75 h, 0.5 µM, pH 7.4
[6] = rat liver microsomes, 0 min, Table 1 (Example 16)
[7] = rat liver microsomes, 0 min, Table 2 (Example 17)
[8] = rat liver microsomes, 0 min, Table 3 (Example 18)
[9] = rat liver microsomes, 0 min, Table 5 (Example 20)
[10] = rat liver microsomes, Table 1 (Example 16)
[11] = rat liver microsomes, Table 2 (Example 17)
[12] = rat liver microsomes, Table 3 (Example 18)
[13] = rat liver microsomes, Table 5 (Example 20)
[14] = rat liver microsomes, 15 min, Table 1 (Example 16)
[15] = rat liver microsomes, 15 min, Table 2 (Example 17)
[16] = rat liver microsomes, 15 min, Table 3 (Example 18)
[17] = rat liver microsomes, 15 min, Table 5 (Example 20)
[18] = rat liver microsomes, 30 min, Table 1 (Example 16)
[19] = rat liver microsomes, 30 min, Table 2 (Example 17)
[20] = rat liver microsomes, 30 min, Table 3 (Example 18)
[21] = rat liver microsomes, 30 min, Table 5 (Example 20)
[22] = rat liver microsomes, 45 min, Table 1 (Example 16)
[23] = rat liver microsomes, 45 min, Table 2 (Example 17)
[24] = rat liver microsomes, 45 min, Table 3 (Example 18)
[25] = rat liver microsomes, 45 min, Table 5 (Example 20)
[26] = rat, microsomes, 1 h, 0.5 µM, pH 7.4

Percent Remaining (%) 0 min [1]: 100% | Percent Remaining (%) 5 min [2]: 112.62% | Percent Remaining (%) 15 min [3]: 94.47% | Percent Remaining (%) 30 min [4]: 84.9% | Percent Remaining (%) 45 min [5]: 83.06% | CLint scaled at 0.5 µM (rat, microsomes): 21.1 mL/min/kg | half-life at 0.5 µM (rat, microsomes, pH 7.4, T1/2): 1.96 h
Compound: [2H]C1NC([2H])C(c2ccc(-n3cc4cccc(C(N)=O)c4n3)cc2)C([2H])C1[2H] (centres unmarked) [Example 7, 2-(4-(piperidin-3-yl-2,4,5,6-d4)phenyl)-2H-indazole-7-carboxamide]

Percent Remaining (%) 0 min [6]: 100.00% | Percent Remaining (%) 0 min [7]: 100% | Percent Remaining (%) 0 min [8]: 100.00% | Percent Remaining (%) 0 min (rat liver microsomes, 0 min, Table 4 (Example 19)): 100.00% | Percent Remaining (%) 0 min [9]: 100.00% | Percent Remaining (%) 5 min [10]: 65.84% | Percent Remaining (%) 5 min [11]: 94.13% | Percent Remaining (%) 5 min [12]: 78.33% | Percent Remaining (%) 5 min (rat liver microsomes, Table 4 (Example 19)): 78.33% | Percent Remaining (%) 5 min [13]: 82.83% | Percent Remaining (%) 15 min [14]: 41.07% | Percent Remaining (%) 15 min [15]: 61.07% | Percent Remaining (%) 15 min [16]: 45.04% | Percent Remaining (%) 15 min (rat liver microsomes, 15 min, Table 4 (Example 19)): 45.04% | Percent Remaining (%) 15 min [17]: 51.29% | Percent Remaining (%) 30 min [18]: 17.68% | Percent Remaining (%) 30 min [19]: 32.18% | Percent Remaining (%) 30 min [20]: 21.55% | Percent Remaining (%) 30 min (rat liver microsomes, 30 min, Table 4 (Example 19)): 21.55% | Percent Remaining (%) 30 min [21]: 25.82% | Percent Remaining (%) 45 min [22]: 9.13% | Percent Remaining (%) 45 min [23]: 21.24% | Percent Remaining (%) 45 min [24]: 10.67% | Percent Remaining (%) 45 min (rat liver microsomes, 45 min, Table 4 (Example 19)): 10.67% | Percent Remaining (%) 45 min [25]: 15.08% | CLint scaled at 0.5 µM (rat, pooled rat liver microsomes, rat liver microsomes, Table 1 (Example 16)): 188 mL/min/kg | CLint scaled at 0.5 µM (rat, pooled rat liver microsomes, rat liver microsomes, Table 2 (Example 17)): 142 mL/min/kg | CLint scaled at 0.5 µM (rat, pooled rat liver microsomes, rat liver microsomes, Table 3 (Example 18)): 179 mL/min/kg | CLint scaled at 0.5 µM (rat, pooled rat liver microsomes, rat liver microsomes, Table 4 (Example 19)): 179 mL/min/kg | CLint scaled at 0.5 µM (rat, pooled rat liver microsomes, rat liver microsomes, Table 5 (Example 20)): 154 mL/min/kg | half-life at 0.5 µM (rat, pooled rat liver microsomes, pH 7.4, T1/2, rat liver microsomes, Table 1 (Example 16)): 0.22 h | half-life at 0.5 µM (rat, pooled rat liver microsomes, pH 7.4, T1/2, rat liver microsomes, Table 2 (Example 17)): 0.292 h | half-life at 0.5 µM (rat, pooled rat liver microsomes, pH 7.4, T1/2, rat liver microsomes, Table 3 (Example 18)): 0.231 h | half-life at 0.5 µM (rat, pooled rat liver microsomes, pH 7.4, T1/2, rat liver microsomes, Table 4 (Example 19)): 0.231 h | half-life at 0.5 µM (rat, pooled rat liver microsomes, pH 7.4, T1/2, rat liver microsomes, Table 5 (Example 20)): 0.269 h
Compound: O=C(c1ccc(F)cc1)C1CCN(CCn2c(=O)[nH]c3ccccc3c2=O)CC1 [ketanserin]

Percent Remaining (%) 0 min [1]: 100.00% | Percent Remaining (%) 15 min [3]: 91.49% | Percent Remaining (%) 30 min [4]: 79.13% | Percent Remaining (%) 45 min [5]: 80.74% | Percent Remaining (%) 60 min [26]: 56.02% | CLint scaled at 0.5 µM (rat, microsomes): 30.7 mL/min/kg | half-life at 0.5 µM (rat, microsomes, pH 7.4, T1/2): 1.35 h
Compound: [2H]c1c([2H])c(-n2cc3cccc(C(N)=O)c3n2)c([2H])c([2H])c1C1CCCNC1 (centres unmarked) [Example 8, 2-(4-(piperidin-3-yl)phenyl-2,3,5,6-d4)-2H-indazole-7-carboxamide]

increase in rat liver microsome metabolic stability (rat, 0.5 µM, pH 7.4): 64% | Percent Remaining (%) 0 min [1]: 100.00% | Percent Remaining (%) 15 min [3]: 98.91% | Percent Remaining (%) 30 min [4]: 83.70% | Percent Remaining (%) 45 min [5]: 79.62% | Percent Remaining (%) 60 min [26]: 75.27% | CLint scaled at 0.5 µM (rat, microsomes): 18.8 mL/min/kg | half-life at 0.5 µM (rat, microsomes, pH 7.4, T1/2): 2.21 h
Compound: [2H]c1c([2H])c(C2([2H])CCCNC2[2H])c([2H])c([2H])c1-n1cc2cccc(C(N)=O)c2n1 (centres unmarked) [Example 9, 2-(4-(piperidin-3-yl-2,3-d2)phenyl-2,3,5,6-d4)-2H-indazole-7-carboxamide]

More lines, now with the values behind:

Compound: [2H]c1c([2H])c(-n2nc3c(C(N)=O)cccc3c2[2H])c([2H])c([2H])c1[C@@H]1CCCNC1 [Example 15, (S)-2-(4-(piperidin-3-yl)phenyl-2,3,5,6-d4)-2H-indazole-3-d-7-carboxamide]
Percent Remaining (%) 0 min [1]: 100.00% | Percent Remaining (%) 15 min [3]: 77.88% | Percent Remaining (%) 30 min [4]: 67.35% | Percent Remaining (%) 45 min [5]: 56.14% | Percent Remaining (%) 60 min [26]: 44.60% | CLint scaled at 0.5 µM (rat, microsomes): 46.4 mL/min/kg | half-life at 0.5 µM (rat, microsomes, pH 7.4, T1/2): 0.892 h

Compound: [2H]C1NC([2H])C([2H])(c2ccc(-n3cc4cccc(C(N)=O)c4n3)cc2)C([2H])C1[2H] (centres unmarked) [Example 5, 2-(4-(piperidin-3-yl-2,3,4,5,6-d5)phenyl)-2H-indazole-7-carboxamide]
Percent Remaining (%) 0 min [1]: 100.00% | Percent Remaining (%) 15 min [3]: 108.00% | Percent Remaining (%) 30 min [4]: 89.02% | Percent Remaining (%) 45 min [5]: 81.33% | Percent Remaining (%) 60 min [26]: 80.31% | CLint scaled at 0.5 µM (rat, microsomes): 17.2 mL/min/kg | half-life at 0.5 µM (rat, microsomes, pH 7.4, T1/2): 2.4 h

Compound: NC(=O)c1cccc2cn(-c3ccc([C@@H]4CCCNC4)cc3)nc12 (racemic) [racemic niraparib]
Percent Remaining (%) 0 min [6]: 100.00% | Percent Remaining (%) 0 min [7]: 100% | Percent Remaining (%) 0 min [8]: 100.00% | Percent Remaining (%) 0 min [9]: 100.00% | Percent Remaining (%) 5 min [11]: 116.67% | Percent Remaining (%) 15 min [14]: 89.16% | Percent Remaining (%) 15 min [15]: 95.83% | Percent Remaining (%) 15 min [16]: 92.47% | Percent Remaining (%) 15 min [17]: 77.23% | Percent Remaining (%) 30 min [18]: 75.88% | Percent Remaining (%) 30 min [19]: 83.18% | Percent Remaining (%) 30 min [20]: 65.45% | Percent Remaining (%) 30 min [21]: 65.45% | Percent Remaining (%) 45 min [22]: 69.11% | Percent Remaining (%) 45 min [23]: 81.48% | Percent Remaining (%) 45 min [24]: 51.57% | Percent Remaining (%) 45 min [25]: 53.43% | Percent Remaining (%) 60 min (rat liver microsomes, 60 min, Table 1 (Example 16)): 60.43% | Percent Remaining (%) 60 min (rat liver microsomes, 60 min, Table 3 (Example 18)): 50.17% | Percent Remaining (%) 60 min (rat liver microsomes, 60 min, Table 5 (Example 20)): 42.23% | Clint [10]: 30.15 mL/min/kg | T1/2 [10]: 1.373 h | Clint [11]: 24.43 mL/min/kg | T1/2 [11]: 1.6945 h | Clint [12]: 46.91 mL/min/kg | T1/2 [12]: 0.8825 h | Clint [13]: 50.00 mL/min/kg | T1/2 [13]: 0.828 h

Compound: [2H]c1c([2H])c(-n2cc3cccc(C(N)=O)c3n2)c([2H])c([2H])c1C1C([2H])NC([2H])C([2H])C1[2H] (centres unmarked) [Example 6]
Percent Remaining (%) 0 min [1]: 100% | Percent Remaining (%) 5 min [2]: 112% | Percent Remaining (%) 15 min [3]: 100% | Percent Remaining (%) 30 min [4]: 88.27% | Percent Remaining (%) 45 min [5]: 85.02% | CLint scaled at 0.5 µM (rat, microsomes): 18.8 mL/min/kg | half-life at 0.5 µM (rat, microsomes, pH 7.4, T1/2): 2.2 h

Compound: [2H]c1c([2H])c(C2([2H])C([2H])([2H])NC([2H])([2H])C([2H])([2H])C2([2H])[2H])c([2H])c([2H])c1-n1cc2cccc(C(N)=O)c2n1 (centres unmarked) [Example 2, 2-(4-(piperidin-3-yl-2,2,3,4,4,5,5,6,6-d9)phenyl-2,3,5,6-d4)-2H-indazole-7-carboxamide]
Percent Remaining (%) 0 min [1]: 100.00% | Percent Remaining (%) 15 min [3]: 93.04% | Percent Remaining (%) 30 min [4]: 80.95% | Percent Remaining (%) 45 min [5]: 75.60% | Percent Remaining (%) 60 min [26]: 69.05% | CLint scaled at 0.5 µM (rat, microsomes): 22.7 mL/min/kg | half-life at 0.5 µM (rat, microsomes, pH 7.4, T1/2): 1.83 h
